Here are results for 16 molecules from the supplement of paper PMC4862054.

Where “and” joins values, the source holds several entries; their conditions need not be identical. Equal entries are not always repeated.

Holding throughout (experiment): normalised viability (% of control), CellTiter-Blue; higher = more viable cells (about 100 = DMSO control)
Conditions in all cases: incubation time: 72 h
On the technique in general: Resazurin is reduced to fluorescent resorufin, in cell work by metabolically active cells.

In test [1] the test system is BT-549. The protocol: (§1)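 DSRT, CellTiter-Blue viability, 72 h incubation. Signal is normalised to DMSO and benzethonium chloride controls. Value is the normalised response at dose 3.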
The test system of test [2] is CAL-51. As to the method:
as §1

Test [3] relates to DU-4475. The protocol: as §1
Test [4] relates to HCC1937. The protocol: as §1
Test [5] deals with Hs578T. The protocol:
as §1

For test [6], the system named is CAL-148. As to the method:
(§2)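 DSRT, CellTiter-Blue viability, 72 h incubation. Signal is normalised to DMSO and benzethonium chloride controls. Value is the normalised response at dose 7.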

Test [7] deals with CAL-51. The protocol:
as §2
The source holds these as a separate data set.

Test [8] concerns CAL-85-1. The protocol:
as §2

For test [9], the system named is DU-4475. As to the method: as §2
This is another data set of the same source.

In test [10] the test system is HDQ-P1. As to the method:
as §2

For test [11], the system named is MDA-MB-453. As to the method: as §2

Take `O=C(O)CC[C@H]1CC[C@@](c2cc(F)ccc2F)(S(=O)(=O)c2ccc(Cl)cc2)CC1` [MK-0752]: the normalised viability in test [1] (10 nM) was 104%; in [2] (1 nM) it was 96.3%; in test [3] (1 nM), 105%; in [4] (10 nM) it was 88.5%; in test [5] (10 nM), 88.6%.
Take `NC1(c2ccc(-c3nc4ccn5c(=O)[nH]nc5c4cc3-c3ccccc3)cc2)CCC1` [MK-2206]: the normalised viability turned out to be 107% in test [1] (10 nM); 100% in test [2] (1 nM); 107% in test [3] (1 nM); 80.7% in test [4] (10 nM); 98.5% in [5] (10 nM).
On to `NC(=O)c1cccc2cn(-c3ccc([C@@H]4CCCNC4)cc3)nc12` [MK-4827], for which the normalised viability in test [1] (100 nM) was found to be 97.1%; in test [2] (10 nM) it was 110%; in test [3] (10 nM), 90.9%; in test [4] (100 nM) it was 72.9%; in test [5] (100 nM) it was 92.1%.
In the case of `N[C@@H](Cc1ccc(N(CCCl)CCCl)cc1)C(=O)O` [Melphalan], the normalised viability in test [1] (9.9 nM) was determined as 110%; in test [2] (0.99 nM) it was 104%; in [3] (0.99 nM) it was 105%; in [4] (9.9 nM), 102%; in [5] (9.9 nM), 75.8%.
Take `Cc1c(C(=O)Nc2ccc(N3C[C@@H](C)O[C@@H](C)C3)nc2)cccc1-c1ccc(OC(F)(F)F)cc1` [NVP-LDE225]: the normalised viability in [1] (100 nM) was 97%; in test [2] (10 nM), 99.7%; in [3] (10 nM), 103%; in test [4] (100 nM), 97.2%; in test [5] (100 nM), 72.5%.
Taken in the same sequence, the figures for `O=C(c1cc(Cc2n[nH]c(=O)c3ccccc23)ccc1F)N1CCN(C(=O)C2CC2)CC1` [Olaparib] were 102%, 101%, 97.5%, 77.9% and 80.9%.
For `CO[C@H](C(=O)[C@@H](O)[C@@H](C)O)[C@@H]1Cc2cc3cc(O[C@H]4C[C@@H](O[C@@H]5C[C@@H](O)[C@H](O)[C@@H](C)O5)[C@H](O)[C@@H](C)O4)c(C)c(O)c3c(O)c2C(=O)[C@H]1O[C@H]1C[C@@H](O[C@@H]2C[C@@H](O)[C@@H](O[C@@H]3C[C@](C)(O)[C@H](O)[C@@H](C)O3)[C@@H](C)O2)[C@H](O)[C@@H](C)O1` [Plicamycin], the normalised viability was 20.2% and 17% in [1] (100 nM); 98.2% and 109% in [2] (10 nM); 88.6% and 110% in test [3] (10 nM); 48.3% and 41.4% in [4] (100 nM); 13% and 6.55% in test [5] (100 nM).
As for `C[C@]12C=CC(=O)C=C1CC[C@@H]1[C@@H]2C(=O)C[C@@]2(C)[C@H]1CC[C@]2(O)C(=O)CO` [Prednisone], the normalised viability amounted to 99.2% in test [1] (100 nM); 102% in test [2] (10 nM); 97.9% in [3] (10 nM); 100% in test [4] (100 nM); 77.9% in [5] (100 nM).
As for `CO[C@H]1C[C@@H]2CC[C@@H](C)[C@@](O)(O2)C(=O)C(=O)N2CCCC[C@H]2C(=O)O[C@H]([C@H](C)C[C@@H]2CC[C@@H](O)[C@H](OC)C2)CC(=O)[C@H](C)/C=C(\C)[C@@H](O)[C@@H](OC)C(=O)[C@H](C)C[C@H](C)/C=C/C=C/C=C/1C` [Sirolimus], the normalised viability stood at 53% in [1] (10 nM); 62.6% in test [2] (1 nM); 85.1% in test [3] (1 nM); 61.5% in test [4] (10 nM); 58.2% in test [5] (10 nM).
As for `CO[C@H]1C[C@@H]2CC[C@@H](C)[C@@](O)(O2)C(=O)C(=O)N2CCCC[C@H]2C(=O)O[C@H]([C@H](C)C[C@@H]2CC[C@@H](O)[C@H](OC)C2)CC(=O)[C@H](C)/C=C(\C)[C@@H](O)[C@@H](OC)C(=O)[C@H](C)C[C@H](C)/C=C/C=C/C=C/1C` [Sirolimus] (100 nM), the normalised viability in [6] amounted to 48.1%; in test [7], 29.2%; in test [8], 52.6%; in test [9], 56.5%; in test [10], 70.6%; in test [11], 27.9%.
As for `CN1CCN(c2nc(C3=C(c4c[nH]c5ccccc45)C(=O)NC3=O)c3ccccc3n2)CC1` [Sotrastaurin], the normalised viability in test [1] (100 nM) came to 86.4%; in test [2] (10 nM), 88.2%; in test [3] (10 nM), 95%; in [4] (100 nM), 96.3%; in [5] (100 nM), 79.9%.
Taken in the same sequence, the figures for `CC/C(=C(\c1ccccc1)c1ccc(OCCN(C)C)cc1)c1ccccc1` [Tamoxifen] were 88.3%, 92%, 94.1%, 93.7% and 91.7%.
For `COc1cc2c(N3CCN(C(=O)Nc4ccc(OC(C)C)cc4)CC3)ncnc2cc1OCCCN1CCCCC1` [Tandutinib], the normalised viability in test [1] (10 nM) came out at 106%; in test [2] (1 nM) it was 109%; in [3] (1 nM), 107%; in test [4] (10 nM), 98.4%; in test [5] (10 nM), 94.5%.
On to `C[C@@H](C(=O)O)c1ccc(-c2ccccc2)c(F)c1` [Tarenflurbil], for which the normalised viability in test [1] (100 nM) is 103%; in test [2] (10 nM), 118%; in [3] (10 nM), 114%; in test [4] (100 nM), 109%; in test [5] (100 nM) it was 72.9%.
As for `Cn1nnc2c(C(N)=O)ncn2c1=O` [Temozolomide], the normalised viability in test [1] (100 nM) was found to be 83.6%; in [2] (10 nM), 98.5%; in [3] (10 nM), 124%; in [4] (100 nM) it was 100%; in [5] (100 nM), 81.3%.
Regarding `CC[C@@H]1C(=O)N(C)c2cnc(Nc3ccc(C(=O)N[C@H]4CC[C@H](N5CCN(CC6CC6)CC5)CC4)cc3OC)nc2N1C(C)C` [Volasertib], the normalised viability turned out to be 94.5% in [1] (10 nM); 102% in [2] (1 nM); 124% in test [3] (1 nM); 70.6% in test [4] (10 nM); 97.3% in [5] (10 nM).
